From ChEMBL document CHEMBL1143662 (Bioorg Med Chem, 2007)

Columns and labels:
[1] = molecular target: T1, Melatonin receptor type 1A (Homo sapiens, UniProt P48039); assay: Intrinsic activity at human cloned MT1 receptor expressed in […] cells by [35S]GTP-gamma-S binding assay relative to melatonin; type: functional, cell-based
[2] = molecular target: T2, Melatonin receptor type 1B (Homo sapiens, UniProt P49286); assay: Displacement of 2-[125I]iodomelatonin from human cloned MT2 receptor expressed in […] cells; type: cell-based
T2 sequence (P49286 whole entry): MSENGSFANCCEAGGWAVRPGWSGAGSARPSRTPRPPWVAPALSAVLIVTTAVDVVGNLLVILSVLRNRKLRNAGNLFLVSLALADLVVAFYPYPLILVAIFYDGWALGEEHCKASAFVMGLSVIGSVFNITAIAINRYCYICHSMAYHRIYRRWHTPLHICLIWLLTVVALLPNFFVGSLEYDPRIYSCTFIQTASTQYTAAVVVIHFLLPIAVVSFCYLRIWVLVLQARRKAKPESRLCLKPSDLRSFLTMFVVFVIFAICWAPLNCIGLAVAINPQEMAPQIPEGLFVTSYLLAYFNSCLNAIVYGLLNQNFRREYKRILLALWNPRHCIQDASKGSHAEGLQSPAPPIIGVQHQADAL

[3] = molecular target: T3, Melatonin receptor type 1B (Homo sapiens) (UniProt P49286); assay: Intrinsic activity at human cloned MT2 receptor expressed in […] cells by [35S]GTP-gamma-S binding assay relative to melatonin; type: functional, cell-based
T3 sequence (whole entry): T2 sequence (P49286 whole entry)

[4] = molecular target: T1, Melatonin receptor type 1A; assay: Displacement of 2-[125I]iodomelatonin from human cloned MT1 receptor expressed in […] cells; type: cell-based

T1 sequence (P48039 whole entry): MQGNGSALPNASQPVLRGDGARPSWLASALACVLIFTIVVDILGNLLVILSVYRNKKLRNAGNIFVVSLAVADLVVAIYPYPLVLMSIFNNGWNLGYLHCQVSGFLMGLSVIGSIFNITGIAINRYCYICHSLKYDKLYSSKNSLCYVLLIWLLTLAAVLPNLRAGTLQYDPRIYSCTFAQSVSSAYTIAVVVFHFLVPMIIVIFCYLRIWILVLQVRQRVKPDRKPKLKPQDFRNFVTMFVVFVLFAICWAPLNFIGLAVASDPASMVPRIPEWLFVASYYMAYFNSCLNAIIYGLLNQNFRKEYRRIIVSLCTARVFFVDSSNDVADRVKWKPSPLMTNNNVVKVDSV

Intrinsic activity [1]	Ki [2]	Intrinsic activity [3]	Ki [4]	Compound
0.75	20 nM	0.38	83 nM	COc1ccc2[nH]c(C(=O)OCCCCCCCCCOC(=O)c3ccccc3)c(CCNC(C)=O)c2c1
0.72	44 nM	0.64	25.4 nM	COc1ccc2[nH]c(C(=O)OCCCCCCCCCCCCOC(=O)c3[nH]c4ccc(OC)cc4c3CCNC(C)=O)c(CCNC(C)=O)c2c1
0.81	573 nM	0.79	387 nM	COc1ccc2[nH]cc(CCNC(=O)CCCCCCCCC(=O)NCCc3c[nH]c4ccc(OC)cc34)c2c1
1	7.92 nM	0.9	7.91 nM	COc1ccc2[nH]c(C(=O)OCCCCCCCCOC(=O)c3[nH]c4ccc(OC)cc4c3CCNC(C)=O)c(CCNC(C)=O)c2c1
1	62.4 nM	0.93	20.1 nM	COc1ccc2[nH]c(C(=O)OCCCCCOC(=O)c3[nH]c4ccc(OC)cc4c3CCNC(C)=O)c(CCNC(C)=O)c2c1
0.33	7.75 nM	-0.17	59.8 nM	COc1ccc2[nH]c(C(=O)OCCCCCCCCCOC(=O)c3[nH]c4ccc(OC)cc4c3CCNC(C)=O)c(CCNC(C)=O)c2c1
0.79	15.4 nM	0.65	24.2 nM	COc1ccc2[nH]c(C(=O)OCCCCCCCCCCOC(=O)c3[nH]c4ccc(OC)cc4c3CCNC(C)=O)c(CCNC(C)=O)c2c1
0.06	4.8 nM	0.23	70.1 nM	CCCCCOC(=O)c1[nH]c2ccc(OC)cc2c1CCNC(C)=O
0.35	7290 nM	0.26	6470 nM	COc1ccc2[nH]cc(CCNC(=O)CCCCCC(=O)NCCc3c[nH]c4ccc(OC)cc34)c2c1
0.77	14.3 nM	0.8	9.5 nM	COc1ccc2[nH]c(C(=O)OCCCOC(=O)c3[nH]c4ccc(OC)cc4c3CCNC(C)=O)c(CCNC(C)=O)c2c1
0.35	65 nM	0.08	215 nM	COc1ccc2[nH]c(C(=O)OCCCCCCCOC(=O)c3[nH]c4ccc(OC)cc4c3CCNC(C)=O)c(CCNC(C)=O)c2c1
